The subject of data set [1] is paclitaxel induced peripheral neuropathy. In words: Reversal of allodynia induced by paclitaxel in mice (s.c. or p.o., von Frey frequency method). The format is in vivo, c57bl/6 mice. The following applies: Mus musculus; for inhibition in vivo at 3 mg/kg: po, 1 h, 3 mg/kg p.o., tested 60 min after dosing, read-out: Screen @ 3 mg/kg po (% MPE); for inhibition in vivo at 1 mg/kg: sc, 0.5 h, 1 mg/kg s.c., tested 30 min after dosing, read-out: Screen @ 1 mg/kg sc (% MPE). The method in brief: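 Neuropathy was induced in mice by paclitaxel (6 mg/kg i.p., days 1, 3, 5, 7) or oxaliplatin (4 mg/kg i.p., days 1-5), with re-testing about 14 days later. Compounds were given s.c. (tested at 30 min) or p.o. (tested at 60 min; paclitaxel only). A 0.4 g von Frey filament was applied ten times per paw, and % non-response was converted to % MPE.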

Data set [2] addresses human sphingosine-1-phosphate receptor 1 (S1P1) (Homo sapiens (Human), UniProt P21453). Kind of data set: Inhibition of cAMP production (HTRF cAMP HiRange), S1P1 CHO-K1 cells. The format is cell-based. The following applies: for hS1P1 cAMP pEC50: inhibition of cAMP production, S1P1 CHO-K1 cells; for Emax: CHO-K1, efficacy (SPAN) normalized to fingolimod, read-out: hS1P1 cAMP SPAN. The method in brief: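 CHO-K1 cells stably co-expressing human S1P1 (C-terminal Prolink tag) and EA-β-arrestin2 were grown in AssayComplete Media 6 at 37° C. and 5% CO2, plated, and incubated overnight. Agonist-driven inhibition of intracellular cAMP was read by TR-FRET with the HTRF cAMP HiRange kit on a PheraStar reader. Potency is pEC50, and efficacy (SPAN) is normalized to fingolimod.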

In data set [3] the target is sphingosine-1-phosphate receptor 5 (S1P5) (Homo sapiens (Human), UniProt Q9H228). In words: Inhibition of cAMP production (HTRF), S1P5 CHO-K1 cells. The format is cell-based. The following applies: for hS1P5 cAMP pEC50: inhibition of cAMP production; for Emax: CHO-K1, efficacy normalized to fingolimod, read-out: hS1P5 cAMP SPAN.
The test system of data set [4] is peripheral blood lymphocytes. In words: Peripheral blood lymphocytes (lymphopenia) in c57bl/6 mice, acute and chronic studies. The format is in vivo. The conditions noted are these: 6 mg/kg sc, 7 days; for Lymphopenia: Effect and Doses, mg/kg, sc: peripheral blood lymphocytes vs vehicle. The method in brief:
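Mice dosed subcutaneously: acute, single 3 mg/kg (n=5/group), blood taken at set time points; chronic, seven days in dose response (up to 3 mg/kg) or screening at 6 mg/kg (n=6-8/group), blood taken 45 min after final dose. Lymphocyte counts (10^3 cells/μl) by haematology analyser, compared with vehicle.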

Sequence of sphingosine-1-phosphate receptor 5 (S1P5) (Q9H228 whole entry): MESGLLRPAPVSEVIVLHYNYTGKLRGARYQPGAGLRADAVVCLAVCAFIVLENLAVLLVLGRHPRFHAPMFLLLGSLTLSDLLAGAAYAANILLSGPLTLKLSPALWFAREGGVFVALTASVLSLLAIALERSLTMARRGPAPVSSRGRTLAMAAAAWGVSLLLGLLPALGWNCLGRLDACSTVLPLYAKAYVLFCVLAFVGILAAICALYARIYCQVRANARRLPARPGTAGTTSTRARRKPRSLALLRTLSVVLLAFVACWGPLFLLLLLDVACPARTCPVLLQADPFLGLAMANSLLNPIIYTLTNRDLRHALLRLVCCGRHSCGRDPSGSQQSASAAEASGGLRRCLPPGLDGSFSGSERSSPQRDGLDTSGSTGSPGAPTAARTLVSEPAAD
Sequence of human sphingosine-1-phosphate receptor 1 (S1P1) (P21453 whole entry, looked up): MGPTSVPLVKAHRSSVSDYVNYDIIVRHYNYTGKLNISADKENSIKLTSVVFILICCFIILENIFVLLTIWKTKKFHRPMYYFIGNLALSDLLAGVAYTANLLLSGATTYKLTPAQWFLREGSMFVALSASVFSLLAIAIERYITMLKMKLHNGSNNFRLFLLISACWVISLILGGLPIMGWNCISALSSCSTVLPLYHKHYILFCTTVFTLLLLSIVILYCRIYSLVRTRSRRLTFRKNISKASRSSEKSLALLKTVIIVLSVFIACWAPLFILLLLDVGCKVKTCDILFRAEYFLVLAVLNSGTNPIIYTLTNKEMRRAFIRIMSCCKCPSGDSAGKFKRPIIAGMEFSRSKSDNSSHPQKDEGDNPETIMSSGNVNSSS

Take `COc1ccc(-c2noc(-c3ccc4c(c3)nnn4CC(C)(C)O)n2)c(C)c1` [Compound 26, 1-{5-[3-(4-methoxy-2-methylphenyl)-1,2,4-oxadiazol-5-yl]-1H-1,2,3-benzotriazol-1-yl}-2-methylpropan-2-ol]: in data set [1], the inhibition in vivo at 3 mg/kg is < 50% and the inhibition in vivo at 1 mg/kg was < 50%. For the same compound, in data set [2], the “hS1P1 cAMP pEC50” value was >6.5. The “hS1P5 cAMP pEC50” value in data set [3] is recorded as <5.0.
With `Cc1ccccc1-c1nc(-c2ccc3c(c2)nnn3C(C)C)no1` [Compound 99, 3-(1-isopropyl-1H-benzo[d][1,2,3]triazol-5-yl)-5-(o-tolyl)-1,2,4-oxadiazole], in data set [1], the inhibition in vivo at 3 mg/kg is > 50% and the inhibition in vivo at 1 mg/kg is > 50%. In data set [4], the “Lymphopenia: Effect and Doses, mg/kg, sc” value is “no change: 6 mg/kg, 7 days”. Besides, the “hS1P1 cAMP pEC50” value in data set [2] is >6.5. Moreover, the “hS1P5 cAMP pEC50” value in data set [3] was <5.0.
`CCC1(CC)CC(=O)c2cc(-c3nc(-c4cccnc4)no3)ccc2O1` [Compound 103, 2,2-diethyl-6-[3-(pyridin-3-yl)-1,2,4-oxadiazol-5-yl]-3,4-dihydro-2H-1-benzopyran-4-one]: in data set [1], the inhibition in vivo at 3 mg/kg was > 50% and the inhibition in vivo at 1 mg/kg is > 50%. Further, in data set [4], the “Lymphopenia: Effect and Doses, mg/kg, sc” value is on record as “no change: 6 mg/kg, 7 days”. In addition, in data set [2], the Emax is > 75% and the “hS1P1 cAMP pEC50” value was >6.5. Besides, in data set [3], the Emax was < 50% and the “hS1P5 cAMP pEC50” value is listed as <5.0.
For the compound `CCC1(CC)CC(=O)c2cc(-c3nc(-c4cccnc4OC)no3)ccc2O1` [Compound 147, 2,2-diethyl-6-(3-(2-methoxypyridin-3-yl)-1,2,4-oxadiazol-5-yl)chroman-4-one], the inhibition in vivo at 1 mg/kg in data set [1] was > 50%. Besides, the “Lymphopenia: Effect and Doses, mg/kg, sc” value in data set [4] was “no change: 6 mg/kg, 7 days”. Further, in data set [2], the Emax is > 75% and the “hS1P1 cAMP pEC50” value was >6.5. Further, in data set [3], the Emax is < 50% and the “hS1P5 cAMP pEC50” value is on record as >5.0.
With `CCC1(CC)CC(=O)c2cc(-c3nc(-c4ccncc4OC)no3)ccc2O1` [Compound 212, 2,2-diethyl-6-(3-(3-methoxypyridin-4-yl)-1,2,4-oxadiazol-5-yl)chroman-4-one], in data set [1], the inhibition in vivo at 1 mg/kg was > 50%. In data set [2], the Emax was > 75% and the “hS1P1 cAMP pEC50” value is listed as >6.5. Moreover, in data set [3], the Emax is < 50% and the “hS1P5 cAMP pEC50” value is listed as <5.0.
`COc1ccccc1-c1nc(-c2ccc3c(c2)nnn3C(C)C)no1` [Compound 287, 3-(1-isopropyl-1H-benzo[d][1,2,3]triazol-5-yl)-5-(2-methoxyphenyl)-1,2,4-oxadiazole]: the inhibition in vivo at 1 mg/kg in data set [1] is < 50%. In addition, in data set [4], the “Lymphopenia: Effect and Doses, mg/kg, sc” value was “no change: 6 mg/kg, 7 days”. Further, the “hS1P1 cAMP pEC50” value in data set [2] is given as >6.5. The “hS1P5 cAMP pEC50” value in data set [3] was <5.0.
On to `Cc1ccccc1-c1noc(-c2ccc3c(c2)nnn3C(C)C)n1` [Compound 293, 5-[3-(2-methylphenyl)-1,2,4-oxadiazol-5-yl]-1-(propan-2-yl)-1H-1,2,3-benzotriazole], for which the inhibition in vivo at 1 mg/kg in data set [1] is > 50%. Also, the “Lymphopenia: Effect and Doses, mg/kg, sc” value in data set [4] is “no change: 6 mg/kg, 7 days”. Moreover, in data set [2], the Emax was > 75% and the “hS1P1 cAMP pEC50” value is >6.5. In addition, in data set [3], the Emax was > 50% and the “hS1P5 cAMP pEC50” value was <5.0.
On to `CC(C)n1nnc2cc(-c3nc(-c4cccc5c4OCCC5)no3)ccc21` [Compound 304, 3-chroman-8-yl-5-(1-isopropylbenzotriazol-5-yl)-1,2,4-oxadiazole], for which the inhibition in vivo at 1 mg/kg in data set [1] was > 50%. The “Lymphopenia: Effect and Doses, mg/kg, sc” value in data set [4] is reported as “no change: 6 mg/kg, 7 days”. Also, in data set [2], the “hS1P1 cAMP pEC50” value is recorded as >6.5. The “hS1P5 cAMP pEC50” value in data set [3] is <5.0.
Regarding `CC(C)n1nnc2cc(-c3nc(-c4ccncc4C(F)(F)F)no3)ccc21` [Compound 455, 1-(propan-2-yl)-5-{3-[3-(trifluoromethyl)pyridin-4-yl]-1,2,4-oxadiazol-5-yl}-1H-1,2,3-benzotriazole], the inhibition in vivo at 3 mg/kg in data set [1] is > 50%. The “Lymphopenia: Effect and Doses, mg/kg, sc” value in data set [4] was “no change: 6 mg/kg, 7 days”. Moreover, in data set [2], the Emax was > 75% and the “hS1P1 cAMP pEC50” value is listed as >6.5.
Take `CCC1(CC)CC(=O)c2cc(-c3nc(-c4cn[nH]c4)no3)ccc2O1` [Compound 469, 6-(3-(1H-pyrazol-4-yl)-1,2,4-oxadiazol-5-yl)-2,2-diethylchroman-4-one]: the inhibition in vivo at 3 mg/kg in data set [1] was > 50%. The “Lymphopenia: Effect and Doses, mg/kg, sc (change in peripheral blood lymphocytes)” value in data set [4] (significance vs vehicle given) is recorded as −28% not stat sig: 6 mg/kg, 7 days. Further, in data set [2], the Emax is > 75% and the “hS1P1 cAMP pEC50” value was >6.5.

The record behind these values is patent US11912693B2, “Compounds for modulating S1P1 activity and methods of using the same” (TREVENA, INC., priority 2017, dated 2024).
